Test results as given in patent US20250241893A1, “TREATMENT OF COGNITIVE DYSFUNCTION” (GH RESEARCH IRELAND LIMITED, priority 2022, published 2025).

Key:
[1] = system: Escherichia coli (WP2 uvrA pKM101); assay: Bacterial mutation test in Escherichia coli; assay type: cell-based; conditions: up to 5000 μg/plate, absence and presence of rat liver S-9
Protocol: These conditions included treatments at concentrations up to 5000 μg/plate (the maximum recommended concentration according to current regulatory guidelines), in the absence and in the presence of a rat liver metabolic activation system (S-9).

[2] = system: patients with treatment-resistant major depressive disorder (TRD); assay: Phase 1/2 clinical trial of inhaled 5-MeO-DMT in TRD; conditions: for Patients with at least one ADR: Part A, n=4, all mild, resolved spontaneously
Protocol: Patients were assigned to different groups. In the context of the present invention, the group who received a single, 12 mg dose and the group who underwent an intra-day individualized dosing regimen (IDR) that allowed for multiple, escalating doses (6 mg, 12 mg and 18 mg) within a single day, driven by the intensity of the patient-reported psychedelic experience are of interest.
The data gathered include the assessment of the treated patients against several scales including the Montgomery-Asberg Depression Rating Scale (MADRS) and the Brief Psychiatric Rating Scale (BPRS).
The MADRS item that is of particular relevance to impaired concentration and memory is “concentration difficulties”. This item represents difficulties in collecting one's thoughts mounting to incapacitating lack of concentration and is scored on a scale ranging from 0 to 6. The score is 0 if the patient has no difficulties in concentrating. The score is 2 in case of occasional difficulties in collecting one's thoughts. A score of 4 is assigned in case of difficulties in concentrating and sustaining thought which reduces ability to read or hold a conversation. The score is 6 if the patient is unable to read or converse without great difficulty.
The MADRS item “reduced sleep” represents the experience of reduced duration or depth of sleep compared to the subject's own normal pattern when well. A score of 0 is assigned when the subject sleeps as usual. […] A score of 4 means that sleep is reduced or broken by at least two hours. A score of 6 means less than two or three hours sleep.
This trial was designed in two parts. Part A was an open-label, single-arm, single-dose Phase 1 trial with two dose levels (12 mg (n=4) and 18 mg (n=4)). […] The primary endpoint of Part B was to assess the effects on the severity of depression, as assessed by the proportion of patients in remission on day seven after dosing, defined as a MADRS total score of less than or equal to 10.

[3] = 12 mg n=4, sum of patient scores, 2 hours after dose, baseline 16
[4] = 12 mg n=4, sum of patient scores, day 1, baseline 13
[5] = 12 mg n=4, sum of patient scores, day 1, baseline 16
[6] = 12 mg n=4, sum of patient scores, day 7, baseline 12
[7] = 12 mg n=4, sum of patient scores, day 7, baseline 13
[8] = 12 mg n=4, sum of patient scores, day 7, baseline 16
[9] = IDR n=8, sum of patient scores, day 1, baseline 25
[10] = IDR n=8, sum of patient scores, day 7, baseline 25
[11] = IDR n=8, sum of patient scores, day 7, baseline 30

With COc1ccc2[nH]cc(CCN(C)C)c2c1 [5-MeO-DMT] the Mutation induction [1] was “did not induce mutation”, the “MADRS Suicidal Thoughts improvement” value ([2]; 12 mg n=4, sum of patient scores, 2 hours after dose, baseline 8) was 5 and the “MADRS Inner Tension improvement” value ([2]; 12 mg n=4, sum of patient scores, 2 hours after dose, baseline 13) was 11. For the same molecule, the “MADRS Concentration Difficulties improvement” value [2, 3] was 9, the “MADRS Inability to Feel improvement” value [2, 3] was 7 and the “MADRS Lassitude improvement” value [2, 3] was 6. For the same molecule, the “MADRS Pessimistic Thoughts improvement” value [2, 3] was 8, the “BPRS Blunted Affect improvement” value ([2]; 12 mg n=4, sum of patient scores, 3 hours after dose, baseline 11) was 3 and the “BPRS Emotional Withdrawal improvement” value ([2]; 12 mg n=4, sum of patient scores, 3 hours after dose, baseline 13) was 2. The “BPRS Tension improvement” value ([2]; 12 mg n=4, sum of patient scores, 3 hours after dose, baseline 14) was 5, the “BPRS Guilt Feelings improvement” value ([2]; 12 mg n=4, sum of patient scores, 3 hours after dose, baseline 18) was 9 and the “BPRS Anxiety improvement” value ([2]; 12 mg n=4, sum of patient scores, 3 hours after dose, baseline 25) was 14. The “MADRS Suicidal Thoughts improvement” value ([2]; 12 mg n=4, sum of patient scores, day 1, baseline 8) was 3, the “BPRS Blunted Affect improvement” value ([2]; 12 mg n=4, sum of patient scores, day 1, baseline 11) was 5 and the “MADRS Reduced Sleep improvement” value ([2]; 12 mg n=4, sum of patient scores, day 1, baseline 12) was 2. For the same molecule, the “BPRS Emotional Withdrawal improvement” value [2, 4] was 5, the “MADRS Inner Tension improvement” value [2, 4] was 10 and the “BPRS Tension improvement” value ([2]; 12 mg n=4, sum of patient scores, day 1, baseline 14) was 8. For the same molecule, the “MADRS Concentration Difficulties improvement” value [2, 5] was 14, the “MADRS Inability to Feel improvement” value [2, 5] was 15 and the “MADRS Lassitude improvement” value [2, 5] was 16. The “MADRS Pessimistic Thoughts improvement” value [2, 5] was 9, the “BPRS Guilt Feelings improvement” value ([2]; 12 mg n=4, sum of patient scores, day 1, baseline 18) was 13 and the “BPRS Anxiety improvement” value ([2]; 12 mg n=4, sum of patient scores, day 1, baseline 25) was 19. The “MADRS Suicidal Thoughts improvement” value ([2]; 12 mg n=4, sum of patient scores, day 7, baseline 8) was 1, the “BPRS Blunted Affect improvement” value ([2]; 12 mg n=4, sum of patient scores, day 7, baseline 11) was 6 and the “MADRS Reduced Sleep improvement” value [2, 6] was 6. The “MADRS Reduced Sleep percentage improvement” value [2, 6] was 50.00%, the “BPRS Emotional Withdrawal improvement” value [2, 7] was 7 and the “MADRS Inner Tension improvement” value [2, 7] was 8. For the same molecule, the “BPRS Tension improvement” value ([2]; 12 mg n=4, sum of patient scores, day 7, baseline 14) was 8, the “MADRS Concentration Difficulties improvement” value [2, 8] was 13 and the “MADRS Inability to Feel improvement” value [2, 8] was 15. For the same molecule, the “MADRS Lassitude improvement” value [2, 8] was 13, the “MADRS Pessimistic Thoughts improvement” value [2, 8] was 8 and the “BPRS Guilt Feelings improvement” value ([2]; 12 mg n=4, sum of patient scores, day 7, baseline 18) was 13. For the same molecule, the “BPRS Anxiety improvement” value ([2]; 12 mg n=4, sum of patient scores, day 7, baseline 25) was 19, the “MADRS Suicidal Thoughts improvement” value ([2]; IDR n=8, sum of patient scores, 2 hours after last dose, baseline 11) was 8 and the “MADRS Inner Tension improvement” value ([2]; IDR n=8, sum of patient scores, 2 hours after last dose, baseline 26) was 15. The “MADRS Lassitude improvement” value ([2]; IDR n=8, sum of patient scores, 2 hours after last dose, baseline 27) was 17, the “MADRS Pessimistic Thoughts improvement” value ([2]; IDR n=8, sum of patient scores, 2 hours after last dose, baseline 28) was 21 and the “MADRS Concentration Difficulties improvement” value ([2]; IDR n=8, sum of patient scores, 2 hours after last dose, baseline 30) was 19. The “MADRS Inability to Feel improvement” value ([2]; IDR n=8, sum of patient scores, 2 hours after last dose, baseline 36) was 24, the “BPRS Emotional Withdrawal improvement” value ([2]; IDR n=8, sum of patient scores, 3 hours after last dose, baseline 13) was 5 and the “BPRS Blunted Affect improvement” value ([2]; IDR n=8, sum of patient scores, 3 hours after last dose, baseline 15) was 4. For the same molecule, the “BPRS Tension improvement” value ([2]; IDR n=8, sum of patient scores, 3 hours after last dose, baseline 16) was 5, the “BPRS Guilt Feelings improvement” value ([2]; IDR n=8, sum of patient scores, 3 hours after last dose, baseline 34) was 20 and the “BPRS Anxiety improvement” value ([2]; IDR n=8, sum of patient scores, 3 hours after last dose, baseline 37) was 18. For the same molecule, the “MADRS Suicidal Thoughts improvement” value ([2]; IDR n=8, sum of patient scores, day 1, baseline 11) was 10, the “BPRS Emotional Withdrawal improvement” value ([2]; IDR n=8, sum of patient scores, day 1, baseline 13) was 5 and the “BPRS Blunted Affect improvement” value ([2]; IDR n=8, sum of patient scores, day 1, baseline 15) was 7. The “BPRS Tension improvement” value ([2]; IDR n=8, sum of patient scores, day 1, baseline 16) was 5, the “MADRS Reduced Sleep improvement” value [2, 9] was 13 and the “MADRS Reduced Sleep percentage improvement” value [2, 9] was 52.00%. The “MADRS Inner Tension improvement” value ([2]; IDR n=8, sum of patient scores, day 1, baseline 26) was 20, the “MADRS Lassitude improvement” value ([2]; IDR n=8, sum of patient scores, day 1, baseline 27) was 22 and the “MADRS Pessimistic Thoughts improvement” value ([2]; IDR n=8, sum of patient scores, day 1, baseline 28) was 24. For the same molecule, the “MADRS Concentration Difficulties improvement” value ([2]; IDR n=8, sum of patient scores, day 1, baseline 30) was 29, the “BPRS Guilt Feelings improvement” value ([2]; IDR n=8, sum of patient scores, day 1, baseline 34) was 23 and the “MADRS Inability to Feel improvement” value ([2]; IDR n=8, sum of patient scores, day 1, baseline 36) was 34. For the same molecule, the “BPRS Anxiety improvement” value ([2]; IDR n=8, sum of patient scores, day 1, baseline 37) was 21, the “MADRS Suicidal Thoughts improvement” value ([2]; IDR n=8, sum of patient scores, day 7, baseline 11) was 8 and the “BPRS Emotional Withdrawal improvement” value ([2]; IDR n=8, sum of patient scores, day 7, baseline 13) was 5. For the same molecule, the “BPRS Blunted Affect improvement” value ([2]; IDR n=8, sum of patient scores, day 7, baseline 15) was 7, the “BPRS Tension improvement” value ([2]; IDR n=8, sum of patient scores, day 7, baseline 16) was 6 and the “MADRS Reduced Sleep improvement” value [2, 10] was 16. For the same molecule, the “MADRS Reduced Sleep percentage improvement” value [2, 10] was 64.00%, the “MADRS Inner Tension improvement” value ([2]; IDR n=8, sum of patient scores, day 7, baseline 26) was 14 and the “MADRS Lassitude improvement” value ([2]; IDR n=8, sum of patient scores, day 7, baseline 27) was 24. For the same molecule, the “MADRS Pessimistic Thoughts improvement” value ([2]; IDR n=8, sum of patient scores, day 7, baseline 28) was 25, the “MADRS Concentration Difficulties improvement” value [2, 11] was 21 and the “MADRS Concentration Difficulties percentage improvement” value [2, 11] was 70.00%. The “BPRS Guilt Feelings improvement” value ([2]; IDR n=8, sum of patient scores, day 7, baseline 34) was 24, the “MADRS Inability to Feel improvement” value ([2]; IDR n=8, sum of patient scores, day 7, baseline 36) was 30 and the “BPRS Anxiety improvement” value ([2]; IDR n=8, sum of patient scores, day 7, baseline 37) was 20. For the same molecule, the SAEs ([2]; Part A (12 mg and 18 mg)) was “No SAEs were reported”, the “Patients with at least one ADR” value ([2]; 12 mg single dose) was 3 of 4 and the “Patients with at least one ADR” value ([2]; 18 mg single dose) was 3 of 4.
